Values belong to the molecule of their own block, whether it stands above or below them.
Assays:
[1] = Adverse events judged possibly or probably related to study drug; conditions: glyburide 10 mg BID + rhIGF-I placebo (N = 34)
Procedure: All adverse events occurring during the treatment and post-treatment periods of the study (day 1 to week 14) were monitored through the follow-up evaluation at week 14. Adverse events continuing beyond the follow-up period were monitored until resolution, as appropriate.
In addition to the adverse events described above, hypoglycemia was expected to occur in some subjects. Hypoglycemia was defined as a BG of <50 mg/dL as indicated by the One-Touch Profile BG meter or the clinical laboratory. In the event of repeated hypoglycemic episodes, the glyburide dose could be decreased (during the treatment period only). Symptomatic hypoglycemic episodes, regardless of blood glucose reading, were documented as hypoglycemia.

[2] = Mid-thigh CT scan: thigh adipose tissue (TAT); format: in vivo, human
Procedure: All CT scans were performed on GE Sytec 4000 CT scanners or an equivalent scanner.
An initial Thigh Scan was performed using the following procedure: • 1. The subject lay on the CT bed with his or her feet toward the scanner. The subject's knees were at least 3 inches above the extended bed joint, not over the joint. • 2. The legs were positioned so they were not touching each other and the hands were crossed over the abdomen so as not to interfere with the scan. • 3. The CT technician then positioned the bed. The entire femur was visualized in the initial topogram. • 4. The technician then made a topogram of the entire femur of the non-dominant leg and recorded this picture on the film. The length of the femur was then measured and recorded and this measurement was used to identify the midpoint of the femur. This midpoint was used to assess the cross section of the thigh. • 5. The technician took a 10-mm slice at the precise level of the mid-point of the femur with the following settings for a GE Sytec 4000 scanner: • kV=100 • MA=170 • 1 sec • DFOV=21 • Algorithm=standard
Technicians were advised that although settings for some scanners may be slightly different, the settings must be standardized so as to give the greatest definition for fat and lean tissue. Once the technician determined the appropriate setting for a scanner, he or she was advised to use the same settings for every (slice) scan. The topograms could be at different settings as the topograms would not be imaged. • 6. The entire cross section of the nondominant thigh was visualized on the screen. If the entire thigh was not visualized on the screen, the picture was reconfigured with a larger display field of view. Once the entire thigh was visualized on the screen, the technician downloaded the cross section to the disk. The disk was checked to make sure the image was actually there, and then the picture was recorded on film. • 7. The exam number, series number, and image number of the slice was then recorded. • 8. The technician sent the film to the printer at this point. The film was set at four pictures per film, and the film had for the femur the recorded total distance, the midpoint, and the slice of the thigh.
The same leg (left) was used as in the initial scan. A topogram of the thigh was taken, and a measurement made down the femur to the midpoint of the femur using the same distance as was used in the baseline thigh scan. A 10-mm cross section scan was taken at the midpoint using the identical settings as were used for the baseline scan. A record was made of the exam number, series number, and image number of the slice.
Slices were downloaded onto the scanner and then retrieved via optical disk (or the Internet if possible) to a computer for analysis. During analysis, the area of intra-abdominal and subcutaneous fat as well as oblique, psoas, quadratum laborum, and sacrospinalis muscles were measured. The images were digitized by optical density to separate bone, muscle, and fat compartments using a modified version of the NIH IMAGE program. Pixel units were converted to area measurements using an internal calibration standard. Digitized images were analyzed in a blinded fashion. The coefficient of variation of repeated analysis of a single scan is <1.5%.

[3] = ETDRS retinopathy score by fundus photography; format: in vivo, human
Procedure: Because concern existed regarding the effects of rhIGF-I on two types of ocular findings—progression of diabetic retinopathy and optic disc swelling—the occurrence of such findings was recorded as a measure of safety. An ophthalmologic visit for dilated funduscopic examination was performed during the screening period. Additionally, fundus photography was performed on each subject prior to initiation of treatment with rhIGF-I or placebo between day 7 and day 1. When optic disc swelling was detected on the initial baseline photograph, the subject was terminated from the study immediately. If the baseline photograph was scored at an Early Treatment Diabetic Retinopathy Study (ETDRS) scale of greater than 35 in either eye, the subject was also not allowed to progress further in the study.
Both the ophthalmologic examination and fundus photography were repeated at the completion of the treatment period or at the early termination visit in the event of premature termination. The ophthalmologic exam was performed within 3 days of the fundus photography. In the event that optic disc swelling was detected on the fundus photograph obtained at the week 12 or early termination visits, subjects were asked to return for repeat fundus photography at 1-3 months following discontinuation from the study, and again at 3-month intervals until the optic disc swelling resolved.
Fundus photographs, obtained for each subject at week 12 or at the early termination visit, were compared with the photographs obtained prior to treatment in order to evaluate the development of retinopathy during the course of the study. The photographs for each eye were graded using the final version of the ETDRS scale. The resulting scores for each eye were combined to yield the ETDRS person score. A change between day 1 and week 12 (or early termination) in the full scale ETDRS person score of three or more levels (5 units) was recorded as a progression of retinopathy and as an adverse event.
A change in ETDRS level was the maximum difference between baseline and on-study or post-treatment values. A negative change indicated improvement.

[4] = mini-poodles; cited from earlier work
[5] = IGF-I administration in human subjects; cited from earlier work
[6] = injected in castrated male sheep; cited from earlier work
[7] = rats, catabolic state induced by diabetes, dexamethasone, or intestinal resection; cited from earlier work
[8] = glyburide 10 mg BID + rhIGF-I placebo (n = 29)
[9] = IGF-I 20 μg/kg, with glyburide or glyburide placebo per label
[10] = IGF-I 40 μg/kg, with glyburide or glyburide placebo per label
[11] = IGF-I 20 μg/kg BID, with glyburide (n = 36) or glyburide placebo (n = 35)
[12] = IGF-I 40 μg/kg BID, with glyburide (n = 36) or glyburide placebo (n = 33)

subjects showing an improvement in retinal score ([3]; Placebo/glyburide group): one
Change in ETDRS levels: 1- to 2-step Progression [3, 8]: 8 (28) n (%)
Change in ETDRS levels: No change [3, 8]: 19 (66) n (%)
Change in ETDRS levels: −1- to −2-step progression (negative change = improvement) [3, 8]: 1 (3) n (%)
Change in ETDRS levels: ≧3-step progression [3, 8]: 1 (3) n (%)
Molecule: COc1ccc(Cl)cc1C(=O)NCCc1ccc(S(=O)(=O)NC(=O)NC2CCCCC2)cc1 [Glyburide, glyburide, reference compound]
Adverse event: Arthralgia [1]: 1 (3) n (%)
Adverse event: Asthenia [1]: 2 (6) n (%)
Adverse event: Headache [1]: 2 (6) n (%)
Adverse event: Hypoglycemia [1]: 3 (9) n (%)
Adverse event: Jaw pain [1]: 1 (3) n (%)
Adverse event: Pain [1]: 2 (6) n (%)
Adverse event: Peripheral Edema [1]: 0 n (%)
Change in TAT (%), mean (SEM) ([2]; glyburide active + IGF-I placebo): 2.5 (2.0) %
Change in TAT, mean (SEM) ([2]; glyburide active + IGF-I placebo, thigh CT, change from baseline): 1.0 (1.6) sq cm

Molecule: IGF-I: recombinant human insulin-like growth factor-I from Genentech; sterile benzyl alcohol-preserved solution, 70 mg in 7 mL acetate/NaCl, pH 5.4; given SC
body mass index [4]: reduced body mass index
effect on body fat and body composition [5]: little effect
effect on body fat [6]: no detectable effect
insulin levels [6]: lowered insulin levels
Change in TAT (%), mean (SEM) [2, 9]: −1.4 (3.7) %
Change in TAT, mean (SEM) [2, 9]: −1.2 (2.8) sq cm
Change in TAT (%), mean (SEM) [2, 10]: 3.9 (4.3) %
Change in TAT, mean (SEM) [2, 10]: 0.3 (4.3) sq cm
percentage of body fat [7]: trend toward a lower percentage of body fat
Change in ETDRS levels: 1- to 2-step Progression [3, 11]: 4 (11) n (%)
Change in ETDRS levels: No change [3, 11]: 24 (69) n (%)
Change in ETDRS levels: −1- to −2-step progression (negative change = improvement) [3, 11]: 6 (17) n (%)
Change in ETDRS levels: ≧3-step progression [3, 11]: 1 (3) n (%)
subjects showing an improvement in retinal score ([3]; IGF-I 20 μg/kg BID, with glyburide or placebo per label): 6 subjects
Change in ETDRS levels: 1- to 2-step Progression [3, 12]: 7 (21) n (%)
Change in ETDRS levels: No change [3, 12]: 20 (61) n (%)
Change in ETDRS levels: −1- to −2-step progression (negative change = improvement) [3, 12]: 5 (15) n (%)
Change in ETDRS levels: ≧3-step progression [3, 12]: 0 n (%)
subjects showing an improvement in retinal score ([3]; IGF-I 40 μg/kg BID, with glyburide or placebo per label): 5 subjects
progression of retinopathy (increases in the ETDRS scores) ([3]; IGF-I 20 or 40 μg/kg BID, 12 weeks, type II DM subjects): did not cause a progression of retinopathy
